Our source for the GI50 and TGI values is PubChem BioAssay (NCI).

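Protocol summary: plate cells (96-well), add compound at 5 concentrations, incubate 48 h, interpolate endpoints linearly. GI50: concentration for 50% inhibition of growth. TGI is the concentration that stops growth completely.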 A value given as a limit tells only on which side of the number the result lay.

Some test systems named below: OVCAR-5 ovarian; OVCAR-8 ovarian; COLO 205 colon; HOP-92 NSCLC; RXF 393 renal; T-47D breast; K-562 leukemia; SF-295 CNS; LOX IMVI melanoma; SF-539 CNS.
Holding throughout (test): NCI-60 cell line screen, 48 h

Consider `O=c1cc(-c2cccc3c2Sc2ccccc2S3)oc(N2CCOCC2)c1`, for which the GI50 in the experiment on OVCAR-5 ovarian was 13.5 µM; in the experiment on OVCAR-8 ovarian it was 12.9 µM; in the experiment with COLO 205 colon, 11.5 µM; with HOP-92 NSCLC, 6.91 µM; with RXF 393 renal, 1.76 µM; with T-47D breast, 3.69 µM. Besides, the GI50 in the experiment with K-562 leukemia is 5.98 µM; with SF-295 CNS, 11.5 µM; in the experiment on LOX IMVI melanoma, 11.4 µM; in the experiment with SF-539 CNS, 11.6 µM. In addition, the TGI with OVCAR-5 ovarian turned out to be 28.3 µM; in the experiment on OVCAR-8 ovarian, 45.7 µM; with COLO 205 colon it was 26.3 µM; with HOP-92 NSCLC it was 21.9 µM; with RXF 393 renal it was 8.05 µM; in the experiment on T-47D breast it was 18.2 µM. In addition, the TGI in the experiment on K-562 leukemia amounted to 30.9 µM; in the experiment with SF-295 CNS, 24.9 µM; in the experiment on LOX IMVI melanoma, 37.4 µM; in the experiment on SF-539 CNS, 25.1 µM.
Consider `COC(=O)c1cc(O)c2cc3c(cc2c1-c1cc(OC)c(OC)c(OC)c1)OCO3`, for which the GI50 in the experiment with OVCAR-5 ovarian was 50.2 µM; in the experiment on OVCAR-8 ovarian, 11.3 µM; in the experiment on COLO 205 colon, 2.77 µM; in the experiment with HOP-92 NSCLC, 4.19 µM; in the experiment with RXF 393 renal it was 2.95 µM; in the experiment with T-47D breast, 2.38 µM. The GI50 with SF-295 CNS was 0.536 µM; in the experiment on LOX IMVI melanoma, 1.67 µM; with SF-539 CNS, 3.34 µM. In addition, the TGI in the experiment with OVCAR-5 ovarian is above 100 µM; with OVCAR-8 ovarian, above 100 µM; in the experiment with COLO 205 colon it was above 100 µM; with HOP-92 NSCLC it was 48.1 µM; in the experiment with RXF 393 renal, above 100 µM; in the experiment with T-47D breast, above 100 µM. Also, the TGI was 5.03 µM in the experiment with SF-295 CNS, above 100 µM in the experiment with LOX IMVI melanoma and above 100 µM in the experiment with SF-539 CNS.
For the molecule `CCN(CC)CC(O)CNc1c2ccc([N+](=O)[O-])cc2nc2cc(OC)c(OC)cc12` (stereo not given), the GI50 in the experiment with OVCAR-5 ovarian was 0.306 µM; in the experiment on OVCAR-8 ovarian, 0.55 µM; with HOP-92 NSCLC it was 0.164 µM; in the experiment with RXF 393 renal it was 0.469 µM; in the experiment with T-47D breast it was 0.369 µM; in the experiment with K-562 leukemia it was 0.396 µM. The GI50 was 0.41 µM in the experiment on SF-295 CNS, 0.238 µM with LOX IMVI melanoma and 0.35 µM in the experiment with SF-539 CNS. Further, the TGI worked out at 2.55 µM in the experiment with OVCAR-5 ovarian; 11 µM with OVCAR-8 ovarian; 0.642 µM with HOP-92 NSCLC; 1.86 µM in the experiment on RXF 393 renal; 1.62 µM in the experiment with T-47D breast; 10.9 µM in the experiment with K-562 leukemia. The values for the TGI in the experiment on SF-295 CNS, in the experiment on LOX IMVI melanoma and with SF-539 CNS were 2.06 µM, 0.662 µM and 1.45 µM, respectively.
On to `Cc1ccc(/C(O)=C/C(=O)C(=O)NC23CC4CC(CC(C4)C2)C3)cc1`, for which the TGI in the experiment with OVCAR-8 ovarian, in the experiment with COLO 205 colon, in the experiment with HOP-92 NSCLC, with RXF 393 renal, with T-47D breast and in the experiment with K-562 leukemia was above 10 µM in each case. Moreover, the TGI in the experiment on SF-295 CNS and with LOX IMVI melanoma was above 10 µM in each case.
Regarding `COc1ccc(C2SCC(=O)N2NC(=O)c2ccc(NC(C)=O)cc2)c(OC)c1` (stereo not given), the TGI in the experiment with OVCAR-5 ovarian, in the experiment with OVCAR-8 ovarian, in the experiment with COLO 205 colon, in the experiment with HOP-92 NSCLC, with RXF 393 renal and in the experiment on T-47D breast was above 100 µM throughout. Moreover, the TGI with K-562 leukemia, with SF-295 CNS and with SF-539 CNS was above 100 µM throughout.
As to `COc1cc(C(=O)N2CCN(c3ncnc4ccccc34)CC2)c(N)cc1OCc1ccccc1`, the GI50 in the experiment on OVCAR-5 ovarian is 15.3 µM; in the experiment with COLO 205 colon it was 5.14 µM; in the experiment with HOP-92 NSCLC, 15.4 µM; with RXF 393 renal, 13.1 µM; in the experiment with T-47D breast it was 7.08 µM; in the experiment with K-562 leukemia it was 16.1 µM. Further, the values for the GI50 with SF-295 CNS, with LOX IMVI melanoma and in the experiment with SF-539 CNS were 12.8 µM, 12.2 µM and 18.6 µM, respectively. Also, the TGI in the experiment on OVCAR-5 ovarian is 31.5 µM; with COLO 205 colon it was 20.2 µM; in the experiment on HOP-92 NSCLC it was 36.3 µM; in the experiment with RXF 393 renal, 27 µM; in the experiment on T-47D breast, 40.9 µM; in the experiment on K-562 leukemia it was 42.8 µM. The TGI amounted to 27.8 µM in the experiment with SF-295 CNS, 24.6 µM in the experiment on LOX IMVI melanoma and 33.2 µM in the experiment with SF-539 CNS.
As for `Nc1nc2c(ncn2C2C=CC(CO)C2)c(=O)[nH]1` (stereo not given), the TGI in the experiment on OVCAR-5 ovarian, with OVCAR-8 ovarian, in the experiment with COLO 205 colon, in the experiment with HOP-92 NSCLC, in the experiment on RXF 393 renal and with T-47D breast was above 100 µM throughout. Moreover, the TGI with K-562 leukemia, in the experiment on SF-295 CNS and in the experiment on SF-539 CNS was above 100 µM throughout.
As for `COc1ccc2ccccc2c1C1NC(=O)c2ccccc2N1` (stereo not given), the TGI in the experiment on OVCAR-5 ovarian is above 31.3 µM; in the experiment on OVCAR-8 ovarian it was 31.8 µM; with HOP-92 NSCLC, above 80.6 µM; in the experiment with RXF 393 renal it was above 23.6 µM; in the experiment on T-47D breast, above 100 µM; in the experiment on LOX IMVI melanoma, 65.2 µM. In the experiment on SF-539 CNS, the TGI was 5.78 µM.
For the molecule `Oc1ccc(C(c2ccc(O)cc2)c2ccc(O)cc2)cc1`, the TGI was 32.6 µM in the experiment with OVCAR-8 ovarian; 20.8 µM in the experiment with COLO 205 colon; 60.5 µM with HOP-92 NSCLC; 39.5 µM in the experiment with RXF 393 renal; 41 µM with T-47D breast; above 100 µM in the experiment on SF-295 CNS. Moreover, the TGI in the experiment on LOX IMVI melanoma came out at 38.4 µM; in the experiment with SF-539 CNS it was 46 µM.
